From PMC5218480 (PLoS ONE, 2017) come the findings set out here.

The test system of this test is MV-4-11 cells. Description: Gene expression microarray analysis (Affymetrix PrimeView) and GSEA. It is filed as cell-based, human. Also noted: RFU PODN (11730768_x_at) / Fold change /veh PODN (11730768_x_at) / RFU LINC00158 (11744669_a_at) / Fold change /veh LINC00158 (11744669_a_at) / RFU DUSP10 (11751237_a_at) / Fold change /veh DUSP10 (11751237_a_at) / RFU ID3 (11757404_x_at) / Fold change /veh ID3 (11757404_x_at) / RFU PLEKHG5 (11737974_s_at) / Fold change /veh PLEKHG5 (11737974_s_at) / RFU LRRC4B (11730491_at) / Fold change /veh LRRC4B (11730491_at) / RFU GIMAP4 (11747438_a_at) / Fold change /veh GIMAP4 (11747438_a_at) / RFU KRT8 (11758183_x_at) / Fold change /veh KRT8 (11758183_x_at) / RFU CNN1 (11734310_a_at) / Fold change /veh CNN1 (11734310_a_at) / RFU VPS37D (11726825_at) / Fold change /veh VPS37D (11726825_at) / RFU C10orf10 (11716522_x_at) / Fold change /veh C10orf10 (11716522_x_at) / RFU KIR2DL2 /// KIR2DL4 /// KIR2DL5A /// KIR2DL5B /// KIR2DS1 /// KIR2DS2 /// KIR2DS3 /// KIR2DS4 /// KIR3DL3 /// KIR3DL3 /// KIR3DS1 (11738374_at) / Fold change /veh KIR2DL2 /// KIR2DL4 /// KIR2DL5A /// KIR2DL5B /// KIR2DS1 /// KIR2DS2 /// KIR2DS3 /// KIR2DS4 /// KIR3DL3 /// KIR3DL3 /// KIR3DS1 (11738374_at) / RFU C1QL1 (11718748_at) / Fold change /veh C1QL1 (11718748_at) / RFU TMPRSS4 (11747572_a_at) / Fold change /veh TMPRSS4 (11747572_a_at) / RFU HAMP (11756126_x_at) / Fold change /veh HAMP (11756126_x_at) / RFU RNFT2 (11725882_a_at) / Fold change /veh RNFT2 (11725882_a_at) / RFU NR4A2 (11747474_a_at) / Fold change /veh NR4A2 (11747474_a_at) / RFU ABCC12 (11746883_a_at) / Fold change /veh ABCC12 (11746883_a_at) / RFU TMEM136 (11760407_x_at) / Fold change /veh TMEM136 (11760407_x_at) / RFU CLDN22 /// WWC2 (11732394_at) / Fold change /veh CLDN22 /// WWC2 (11732394_at) / RFU HLA-DPB1 (11760878_x_at) / Fold change /veh HLA-DPB1 (11760878_x_at) / RFU SPINT1 (11716480_a_at) / Fold change /veh SPINT1 (11716480_a_at) / RFU GAP43 (11754022_s_at) / Fold change /veh GAP43 (11754022_s_at) / RFU A4GNT (11735810_at) / Fold change /veh A4GNT (11735810_at) / RFU PRB3 (11715151_x_at) / Fold change /veh PRB3 (11715151_x_at) / RFU TUBB4B (11761932_at) / Fold change /veh TUBB4B (11761932_at) / RFU CAPN14 (11732068_a_at) / Fold change /veh CAPN14 (11732068_a_at) / RFU TMCC2 (11721928_a_at) / Fold change /veh TMCC2 (11721928_a_at) / RFU IRGQ (11745062_a_at) / Fold change /veh IRGQ (11745062_a_at) / RFU FAM174B (11720279_a_at) / Fold change /veh FAM174B (11720279_a_at) / RFU TMPRSS4 (11748680_a_at) / Fold change /veh TMPRSS4 (11748680_a_at) / RFU FAM212B (11763350_a_at) / Fold change /veh FAM212B (11763350_a_at) / RFU PLEKHG5 (11743358_a_at) / Fold change /veh PLEKHG5 (11743358_a_at) / RFU ZSCAN30 (11745921_a_at) / Fold change /veh ZSCAN30 (11745921_a_at) / RFU CMKLR1 (11741424_a_at) / Fold change /veh CMKLR1 (11741424_a_at) / RFU LOC101060620 /// MAPK8IP1 (11723275_at) / Fold change /veh LOC101060620 /// MAPK8IP1 (11723275_at) / RFU SPTSSB (11747773_x_at) / Fold change /veh SPTSSB (11747773_x_at) / RFU PRSS12 (11739890_at) / Fold change /veh PRSS12 (11739890_at) / RFU BIN1 (11741810_x_at) / Fold change /veh BIN1 (11741810_x_at) / RFU WNT11 (11732464_a_at) / Fold change /veh WNT11 (11732464_a_at) / RFU C10orf10 (11716521_a_at) / Fold change /veh C10orf10 (11716521_a_at) / RFU C5orf56 (11738089_at) / Fold change /veh C5orf56 (11738089_at) / RFU CYB561 (11721691_x_at) / Fold change /veh CYB561 (11721691_x_at) / RFU ANKRD19P (11752326_a_at) / Fold change /veh ANKRD19P (11752326_a_at) / RFU OR2T12 /// OR2T33 /// OR2T8 (11738714_s_at) / Fold change /veh OR2T12 /// OR2T33 /// OR2T8 (11738714_s_at) / RFU VCAN (11748164_a_at) / Fold change /veh VCAN (11748164_a_at) / RFU JSRP1 (11732532_at) / Fold change /veh JSRP1 (11732532_at) / RFU KRTAP10-11 (11738290_x_at) / Fold change /veh KRTAP10-11 (11738290_x_at) / RFU MYO3A (11730013_a_at) / Fold change /veh MYO3A (11730013_a_at) / RFU EBF3 (11725865_a_at) / Fold change /veh EBF3 (11725865_a_at) / RFU CAMK2N1 (11719241_x_at) / Fold change /veh CAMK2N1 (11719241_x_at) / RFU C5orf56 (11738088_a_at) / Fold change /veh C5orf56 (11738088_a_at) / RFU OLFML3 (11715873_a_at) / Fold change /veh OLFML3 (11715873_a_at) / RFU LOC100653217 /// NTM (11731650_a_at) / Fold change /veh LOC100653217 /// NTM (11731650_a_at) / RFU MAPK11 (11762145_a_at) / Fold change /veh MAPK11 (11762145_a_at) / RFU FIZ1 (11724087_x_at) / Fold change /veh FIZ1 (11724087_x_at) / RFU OASL (11726364_x_at) / Fold change /veh OASL (11726364_x_at) / RFU SOX15 (11748057_x_at) / Fold change /veh SOX15 (11748057_x_at) / RFU CD79A (11719716_a_at) / Fold change /veh CD79A (11719716_a_at) / RFU HIST1H1D (11736915_at) / Fold change /veh HIST1H1D (11736915_at) / RFU CASKIN2 (11723855_a_at) / Fold change /veh CASKIN2 (11723855_a_at) / RFU LOC730098 (11760151_x_at) / Fold change /veh LOC730098 (11760151_x_at) / RFU OR4N2 (11742367_at) / Fold change /veh OR4N2 (11742367_at) / RFU PRRT2 (11749266_a_at) / Fold change /veh PRRT2 (11749266_a_at) / RFU SNX32 (11753110_a_at) / Fold change /veh SNX32 (11753110_a_at) / RFU CDHR5 (11726645_a_at) / Fold change /veh CDHR5 (11726645_a_at) / RFU RCAN1 (11760418_a_at) / Fold change /veh RCAN1 (11760418_a_at) / RFU FAM167A (11723789_a_at) / Fold change /veh FAM167A (11723789_a_at) / RFU FAM26E (11764081_at) / Fold change /veh FAM26E (11764081_at) / RFU ISYNA1 (11749810_s_at) / Fold change /veh ISYNA1 (11749810_s_at) / RFU ACY1 (11761880_at) / Fold change /veh ACY1 (11761880_at) / RFU 11764098_at / Fold change /veh 11764098_at / RFU SAMD14 (11745864_x_at) / Fold change /veh SAMD14 (11745864_x_at) / RFU NPB (11741838_a_at) / Fold change /veh NPB (11741838_a_at) / RFU TMPRSS6 (11731388_a_at) / Fold change /veh TMPRSS6 (11731388_a_at) / RFU KRTAP10-2 (11738614_at) / Fold change /veh KRTAP10-2 (11738614_at) / RFU ARHGAP8 /// PRR5-ARHGAP8 (11727945_x_at) / Fold change /veh ARHGAP8 /// PRR5-ARHGAP8 (11727945_x_at) / RFU KRTAP5-7 /// NADSYN1 (11734609_at) / Fold change /veh KRTAP5-7 /// NADSYN1 (11734609_at) / RFU RASL12 (11751679_a_at) / Fold change /veh RASL12 (11751679_a_at) / RFU CDKN2B (11736163_a_at) / Fold change /veh CDKN2B (11736163_a_at) / RFU PRF1 (11729649_at) / Fold change /veh PRF1 (11729649_at) / RFU, ZNF638 /// ZNF638-IT1 / Fold change vs veh, ZNF638 /// ZNF638-IT1 / RFU, PANK3 / Fold change vs veh, PANK3 / RFU, SH3YL1 / Fold change vs veh, SH3YL1 / RFU, ZEB2 / Fold change vs veh, ZEB2 / RFU, NRIP1 / Fold change vs veh, NRIP1 / RFU, PTTG1IP / Fold change vs veh, PTTG1IP / RFU, CAPN2 / Fold change vs veh, CAPN2 / RFU, MED14 / Fold change vs veh, MED14 / RFU, SNORA58 / Fold change vs veh, SNORA58 / RFU, C1orf63 / Fold change vs veh, C1orf63 / RFU, LRRFIP1 / Fold change vs veh, LRRFIP1 / RFU, NDUFAF7 / Fold change vs veh, NDUFAF7 / RFU, SLC12A2 / Fold change vs veh, SLC12A2 / RFU, IBTK / Fold change vs veh, IBTK / RFU, ESF1 / Fold change vs veh, ESF1 / Fold change vs veh, TMEM50B / RFU, TAOK1 / Fold change vs veh, TAOK1 / RFU, ACBD3 / Fold change vs veh, ACBD3 / RFU, TMA16 / Fold change vs veh, TMA16 / RFU, RWDD3 / Fold change vs veh, RWDD3 / RFU, BCAT1 / Fold change vs veh, BCAT1 / RFU, EDEM3 / Fold change vs veh, EDEM3 / RFU, TMEM33 / Fold change vs veh, TMEM33 / RFU, WDR75 / Fold change vs veh, WDR75 / RFU, AHCTF1 / Fold change vs veh, AHCTF1 / RFU, TFRC / Fold change vs veh, TFRC / RFU, ZDHHC17 / Fold change vs veh, ZDHHC17 / RFU, NOM1 / Fold change vs veh, NOM1 / RFU, ARL8B / Fold change vs veh, ARL8B / RFU, ZBTB11 / Fold change vs veh, ZBTB11 / RFU, TAMM41 / Fold change vs veh, TAMM41 / RFU, KIAA1704 /// LOC100996395 / Fold change vs veh, KIAA1704 /// LOC100996395 / RFU, ING1 / Fold change vs veh, ING1 / RFU, TRMT61B / Fold change vs veh, TRMT61B / RFU, FUBP3 / Fold change vs veh, FUBP3 / RFU, TP53 / Fold change vs veh, TP53 / RFU, TNKS2 / Fold change vs veh, TNKS2 / RFU, ZFP14 / Fold change vs veh, ZFP14 / RFU, ACTR2 / Fold change vs veh, ACTR2 / RFU, PPP3R1 / Fold change vs veh, PPP3R1 / RFU, PIK3R1 / Fold change vs veh, PIK3R1 / RFU, HNRNPA1 / Fold change vs veh, HNRNPA1 / RFU, RNF170 / Fold change vs veh, RNF170 / RFU, ZNF28 / Fold change vs veh, ZNF28 / RFU, RNGTT / Fold change vs veh, RNGTT / RFU, OGT / Fold change vs veh, OGT / RFU, BRD1 / Fold change vs veh, BRD1 / RFU, MARS / Fold change vs veh, MARS / RFU, ZNF655 / Fold change vs veh, ZNF655 / RFU, FAHD1 / Fold change vs veh, FAHD1 / RFU, BDP1 / Fold change vs veh, BDP1 / RFU, LRRCC1 / Fold change vs veh, LRRCC1 / RFU, ARID1A / Fold change vs veh, ARID1A / RFU, ZNF146 / Fold change vs veh, ZNF146 / RFU, ZNF330 / Fold change vs veh, ZNF330 / RFU, GPN3 / Fold change vs veh, GPN3 / RFU, C9orf123 / Fold change vs veh, C9orf123 / RFU, N4BP2L2 / Fold change vs veh, N4BP2L2 / RFU, ARFIP1 / Fold change vs veh, ARFIP1 / RFU, FAM179B / Fold change vs veh, FAM179B / RFU, BCL10 / Fold change vs veh, BCL10 / RFU, UHRF1BP1L / Fold change vs veh, UHRF1BP1L / RFU, BET1 / Fold change vs veh, BET1 / RFU, CNOT2 / Fold change vs veh, CNOT2 / RFU, ZNF268 / Fold change vs veh, ZNF268 / Fold change vs veh, ZNF507 / RFU, DGCR2 / Fold change vs veh, DGCR2 / RFU, WDSUB1 / Fold change vs veh, WDSUB1 / Fold change vs veh, HSP90B1 /// MIR3652 / RFU, ADSS / Fold change vs veh, ADSS / RFU, GK / Fold change vs veh, GK / RFU, ZNF148 / Fold change vs veh, ZNF148 / RFU, TAF9 / Fold change vs veh, TAF9 / RFU, SLC1A5 / Fold change vs veh, SLC1A5 / RFU, SLMO2 / Fold change vs veh, SLMO2 / RFU, ABCC4 / Fold change vs veh, ABCC4 / RFU, LOC101060439 /// RAP1B / Fold change vs veh, LOC101060439 /// RAP1B / RFU, RFX7 / Fold change vs veh, RFX7 / RFU, GTPBP10 / Fold change vs veh, GTPBP10 / RFU, CNEP1R1 / Fold change vs veh, CNEP1R1 / RFU, BIVM-ERCC5 /// ERCC5 / Fold change vs veh, BIVM-ERCC5 /// ERCC5 / RFU, ILF3 / Fold change vs veh, ILF3 / RFU 11762660_at / Fold change /veh 11762660_at / RFU VCAN (11757783_s_at) / Fold change /veh VCAN (11757783_s_at) / RFU DDX43 (11728927_at) / Fold change /veh DDX43 (11728927_at) / RFU KRT8 (11758188_x_at) / Fold change /veh KRT8 (11758188_x_at) / RFU NKD1 (11759106_at) / Fold change /veh NKD1 (11759106_at) / RFU SRD5A1 (11742802_a_at) / Fold change /veh SRD5A1 (11742802_a_at) / RFU TPSAB1 /// TPSB2 (11721975_s_at) / Fold change /veh TPSAB1 /// TPSB2 (11721975_s_at) / RFU GSTM3 (11746129_a_at) / Fold change /veh GSTM3 (11746129_a_at) / RFU IL23R (11737362_x_at) / Fold change /veh IL23R (11737362_x_at) / RFU TMEM51 (11727254_a_at) / Fold change /veh TMEM51 (11727254_a_at) / RFU PIWIL2 (11732686_x_at) / Fold change /veh PIWIL2 (11732686_x_at) / RFU ORM1 (11744905_x_at) / Fold change /veh ORM1 (11744905_x_at) / RFU CCDC152 (11743942_at) / Fold change /veh CCDC152 (11743942_at) / RFU ECM1 (11717891_a_at) / Fold change /veh ECM1 (11717891_a_at) / RFU IL23R (11748794_a_at) / Fold change /veh IL23R (11748794_a_at) / RFU TNFAIP8L3 (11732012_x_at) / Fold change /veh TNFAIP8L3 (11732012_x_at) / RFU MBOAT4 (11741988_at) / Fold change /veh MBOAT4 (11741988_at) / RFU 11764193_at / Fold change /veh 11764193_at / RFU TMEM53 (11763286_at) / Fold change /veh TMEM53 (11763286_at) / RFU MAGEB2 (11727129_at) / Fold change /veh MAGEB2 (11727129_at) / RFU TMEM200A (11744735_a_at) / Fold change /veh TMEM200A (11744735_a_at) / RFU CCDC152 (11751479_a_at) / Fold change /veh CCDC152 (11751479_a_at) / RFU FAM211A (11726209_a_at) / Fold change /veh FAM211A (11726209_a_at) / RFU RGS16 (11746705_a_at) / Fold change /veh RGS16 (11746705_a_at) / RFU VCAN (11755009_s_at) / Fold change /veh VCAN (11755009_s_at) / RFU RHOB (11743442_s_at) / Fold change /veh RHOB (11743442_s_at) / RFU RGS16 (11720943_a_at) / Fold change /veh RGS16 (11720943_a_at) / RFU RGS16 (11720944_at) / Fold change /veh RGS16 (11720944_at) / RFU, VPS4B / Fold change vs veh, VPS4B / RFU, CREB1 / Fold change vs veh, CREB1 / RFU, DNAJC13 / Fold change vs veh, DNAJC13 / RFU, GNAQ / Fold change vs veh, GNAQ / RFU, CDK5R1 / Fold change vs veh, CDK5R1 / RFU, ZRANB3 / Fold change vs veh, ZRANB3 / RFU, CUL4A / Fold change vs veh, CUL4A / RFU, CCNY / Fold change vs veh, CCNY / RFU, UFL1 / Fold change vs veh, UFL1 / RFU, COG3 / Fold change vs veh, COG3 / RFU, DIAPH2 / Fold change vs veh, DIAPH2 / RFU, SKA2 / Fold change vs veh, SKA2 / RFU, AFF3 / Fold change vs veh, AFF3 / RFU, LMF1 / Fold change vs veh, LMF1 / RFU, IPO11 / Fold change vs veh, IPO11 / RFU, DFFB / Fold change vs veh, DFFB / RFU, FOXP1 / Fold change vs veh, FOXP1 / RFU, CARD8 / Fold change vs veh, CARD8 / RFU, STRN3 / Fold change vs veh, STRN3 / RFU, ADK / Fold change vs veh, ADK / RFU, RASSF2 / Fold change vs veh, RASSF2 / RFU, WIPF1 / Fold change vs veh, WIPF1 / RFU, LARP1B / Fold change vs veh, LARP1B / RFU, RASA1 / Fold change vs veh, RASA1 / RFU, RB1 / Fold change vs veh, RB1 / RFU, PPFIA1 / Fold change vs veh, PPFIA1 / RFU, MAT2A / Fold change vs veh, MAT2A / RFU, CCT5 / Fold change vs veh, CCT5 / RFU, WDR92 / Fold change vs veh, WDR92 / RFU, CUX1 / Fold change vs veh, CUX1 / RFU, TTC7A / Fold change vs veh, TTC7A / RFU, TMEM135 / Fold change vs veh, TMEM135 / RFU, DEPTOR / Fold change vs veh, DEPTOR / RFU, CPM / Fold change vs veh, CPM / RFU, DNAJB6 / Fold change vs veh, DNAJB6 / RFU, CACNA2D3 / Fold change vs veh, CACNA2D3 / RFU, DTX4 / Fold change vs veh, DTX4 / RFU, TFCP2 / Fold change vs veh, TFCP2 / RFU, GMCL1 /// GMCL1P1 / Fold change vs veh, GMCL1 /// GMCL1P1 / RFU, AEBP2 / Fold change vs veh, AEBP2 / RFU, SNHG1 /// SNORD22 /// SNORD25 /// SNORD26 /// SNORD27 /// SNORD28 /// SNORD29 /// SNORD31 / Fold change vs veh, SNHG1 /// SNORD22 /// SNORD25 /// SNORD26 /// SNORD27 /// SNORD28 /// SNORD29 /// SNORD31 / Fold change (Aza/veh), C12orf56 (ProbeSet 11735607_a_at) / Fold change (ACY-1035/veh), C12orf56 (ProbeSet 11735607_a_at) / Fold change (Aza/veh), FGFR1OP (ProbeSet 11751329_s_at) / Fold change (ACY-1035/veh), FGFR1OP (ProbeSet 11751329_s_at) / Fold change (Aza/veh), VPS36 (ProbeSet 11739960_a_at) / Fold change (ACY-1035/veh), VPS36 (ProbeSet 11739960_a_at) / RFU SYPL1 (11715823_x_at) / Fold change /veh SYPL1 (11715823_x_at) / RFU IGFBP7 (11715501_s_at) / Fold change /veh IGFBP7 (11715501_s_at) / RFU REEP3 (11722064_at) / Fold change /veh REEP3 (11722064_at) / RFU IGLL1 (11728026_x_at) / Fold change /veh IGLL1 (11728026_x_at): dose or concentration left out as unconfirmed. The settings on record: ProbeSet 11743286_at; LIST D.

Each structure is given as a SMILES string.

With `Nc1ccc(-c2cccs2)cc1NC(=O)c1ccc2c(c1)cc(C1CC1)n2CCN1CCOCC1` [ACY-1035], the “RFU, DTX4” value came to 268.88 RFU.
